The values that follow are results of earlier work, collected in US20030092774A1, “Methods for treating neoplastic, angiogenic, vascular, fibroblastic, and/or immunosuppressive iregularities of the eye and/or joint via administration of combretastatin based medicaments, and iontophoretic devices for delivering combretastatin based medicaments” (priority 2001, published 2003).

Take `COc1ccc(/C=C\c2cc(OC)c(OC)c(OC)c2)cc1O` [combretastatin-A4, (cis)-1-(3′,4′,5′,-trimethoxyphenyl)-2-(3 ″-hydroxy-4″-methoxyphenyl)ethene]: the “solubility in aqueous solution” value is “practically insoluble”.
